# Results as given in patent publication US20040234580A1, “Animal feeds including actives and methods of using the same” (priority 2001, published 2004).
# Experiments:
# [1] = Storage stability of ivermectin in extruded dog food (HPLC content, frozen versus ambient); format: physicochemical
# Procedure: Following this treatment, the product was dried to a moisture level of less than 10% by weight. Three samples from the dryer were subsequently frozen and another […] placed in a plastic bag and stored at room temperature, for a period in excess of six months.
# The products resulting from this test were analyzed to determine the content of ivermectin in the samples. In this analysis, each feed sample was ground in a Retsch mill at low speed using a 2 mm grating screen, so that the ground material would pass through a #10 mesh screen. A total of six samples, three frozen and three stored at room temperature, were processed. In each case, three 37.5 g of a sample was placed in a 250 ml bottle and 100 ml of methanol was added. The bottle was capped, the sample was sonicated for 20 minutes and shaken for 1 hour. 40 ml of the extract was added to a centrifuge tube and centrifuged for 5 minutes at 2000 rpm. 20 ml of the supernatant solution was then passed through a alumina column. The first five ml was rejected and the remainder of the liquid through the column was collected as a purified sample. 2 ml of the purified sample was mixed with a 5 ml mixture of acetonitrile:water (1:1), and a solid phase extraction (SPE) was performed in accordance with the procedure described in Doherty et al., Analytical Chemists International, 81:869(4) (1998). […]
# [2] = Ivermectin content of dog blood after ad libitum feeding of ivermectin-containing dog food (HPLC); format: in vivo; conditions: female mixed breed dog about 10 kg; Example 2 feed (approx. 1121.1 μg ivermectin/kg db) ad libitum; blood drawn four hours after eating, day 7 and seven days later
# Procedure: The dog food from this run was fed ad libitum to an intact female mixed breed dog weighing about 10 kg. On day 7, blood was drawn from the dog four hours after eating and stored in an anti-coagulant tube with calcium EDTA in a refrigerator. Seven days later, the same dog was again fed the ivermectin-containing feed ad libitum and blood was collected four hours post-feeding. This sample was also refrigerated in the same fashion as the first sample.
# The blood samples were then analyzed to determine the content of ivermectin therein, using HPLC. The procedure used was described in Diclidnson, Journal of Chromatography, 58:250-257 (1990). In this procedure, 0.5 ml of each blood sample was purified using solid phase extraction (SPE) cartridges and dissolved in a small volume of mobile phase for injection onto the HPLC column. The method has a limit of detection of about 2 ng/ml and uses an internal standard. After preparation of the internal standard, a standard curve is constructed using ivermectin-spiked blood samples. A known 1% ivermectin sample was used as the primary standard.
# The blood samples from the dog were then analyzed for ivermectin content with HPLC peak heights corrected using the internal standard.
substance,measurement,setting,value
Ivermectin,average ivermectin content of the three frozen and the ambient-stored samples,"[1]; co-extruded pillow dog food of Example 1, stored frozen or at room temperature in excess of six months, expected content 0.42 μg/kg, HPLC",0.43 µg/kg
same,effect of storage conditions (frozen versus ambient) upon ivermectin potency,"[1]; dog food of Example 1, frozen versus room temperature in excess of six months",little effect
same,ivermectin in dog blood samples,[2],5 to 8 ng/mL
